# According to the supplement of paper PMC10307832:
# Compound: C(C(=O)C(=O)O)Br [Bromopyruvate] + Cc1nc(NC(=O)N2CCC[C@H]2C(N)=O)sc1-c1ccnc(C(C)(C)C(F)(F)F)c1 [Alpelisib] (partner 2 µM)
# Assay: relative viability (nuclei count vs DMSO), 5 days (fraction); higher = more cells survive
# Details: first compound 1 µM
# How it was run: (§1)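 Lung cancer cell lines were seeded in 1536-well plates and dosed by pin tool the next day, with either a single drug or a fixed anchor-drug dose combined with five library-drug doses (not always all listed) spaced in √10 steps. Five days later, one step fixed the cells and stained their nuclei (final 0.05% Triton X-100, 1% formaldehyde, 1 ug/ml Hoechst), and nuclei were counted on 4× images. Relative viability is the nuclei count in treated wells divided by the count in vehicle wells, and each value is the median of duplicate plates.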
row,Cell Line,relative viability
1,NCI-H2085,0.968
2,HCC-15,0.929
3,NCI-H1793,0.659
4,PC-3 [JPC-3],1.06
5,EKVX,0.875
6,LC-2-ad,0.925
7,NCI-H1944,0.8
8,NCI-H1975,0.77
9,SK-LU-1,1.09
10,NCI-H358,0.812
11,NCI-H661,0.693
12,RERF-LC-KJ,0.688

# Same assay, conditions: first compound 3.162 µM
row,Cell Line,relative viability
1,LXF-289,1.03
2,NCI-H2347,1.16
3,NCI-H650,1.2
4,CAL-12T,1.49
5,NCI-H1651,1.06
6,EPLC-272H,1.17
7,NCI-H23,0.669
8,NCI-H1792,0.788
9,NCI-H1355,0.961
10,NCI-H322M,0.73
11,NCI-H1437,1.06
12,NCI-H1755,0.925
13,NCI-H2085,0.785
14,HCC-15,0.947
15,NCI-H1793,0.715
16,PC-3 [JPC-3],1.01
17,EKVX,0.815
18,LC-2-ad,0.919
19,NCI-H1944,0.85
20,NCI-H1975,0.752
21,SK-LU-1,1.05
22,NCI-H358,1.08
23,NCI-H661,0.628
24,RERF-LC-KJ,1.09

# Same assay, conditions: first compound 10 µM
row,Cell Line,relative viability
1,LXF-289,1.04
2,NCI-H2347,1.38
3,NCI-H650,1.28
4,CAL-12T,1.38
5,NCI-H1651,0.876
6,EPLC-272H,0.941
7,NCI-H23,0.68
8,NCI-H1792,0.906
9,NCI-H1355,0.774
10,NCI-H322M,0.843
11,NCI-H1437,1.21
12,NCI-H1755,0.968
13,NCI-H2085,0.894
14,HCC-15,0.962
15,NCI-H1793,0.751
16,PC-3 [JPC-3],1.01
17,EKVX,1.01
18,LC-2-ad,0.839
19,NCI-H1944,0.904
20,NCI-H1975,0.606
21,SK-LU-1,0.939
22,NCI-H358,0.819
23,NCI-H661,0.601
24,RERF-LC-KJ,0.825

# Same assay, conditions: first compound 31.62 µM
row,Cell Line,relative viability
1,LXF-289,1.03
2,NCI-H2347,0.849
3,NCI-H650,1.07
4,CAL-12T,1.25
5,NCI-H1651,0.868
6,EPLC-272H,0.806
7,NCI-H23,0.46
8,NCI-H1792,0.708
9,NCI-H1355,0.872
10,NCI-H322M,0.779
11,NCI-H1437,0.911
12,NCI-H1755,0.963
13,NCI-H2085,0.975
14,HCC-15,0.852
15,NCI-H1793,0.697
16,PC-3 [JPC-3],1.06
17,EKVX,0.86
18,LC-2-ad,0.938
19,NCI-H1944,0.821
20,NCI-H1975,0.635
21,SK-LU-1,0.874
22,NCI-H358,0.69
23,NCI-H661,0.588
24,RERF-LC-KJ,0.773

# Same assay, conditions: first compound 100 µM
row,Cell Line,relative viability
1,LXF-289,1.08
2,NCI-H2347,1.13
3,NCI-H650,1.02
4,CAL-12T,0.952
5,NCI-H1651,0.912
6,EPLC-272H,1.04
7,NCI-H23,0.43
8,NCI-H1792,0.703
9,NCI-H1355,0.903
10,NCI-H322M,0.798
11,NCI-H1437,0.989
12,NCI-H1755,0.97
13,NCI-H2085,0.851
14,HCC-15,0.8
15,NCI-H1793,0.702
16,PC-3 [JPC-3],1.03
17,EKVX,0.943
18,LC-2-ad,0.893
19,NCI-H1944,0.858
20,NCI-H1975,0.593
21,SK-LU-1,0.86
22,NCI-H358,0.721
23,NCI-H661,0.657
24,RERF-LC-KJ,0.82

# Compound: CC(O)(CS(=O)(=O)c1ccc(F)cc1)C(=O)Nc1ccc(C#N)c(C(F)(F)F)c1 [Bicalutamide] + CCNC(=O)c1noc(-c2cc(C(C)C)c(O)cc2O)c1-c1ccc(CN2CCOCC2)cc1 [Luminespib] (partner 0.01 µM)
# Assay: as above
# Details: first compound 0.08 µM
# How it was run: as §1
row,Cell Line,relative viability
1,LXF-289,0.667
2,NCI-H2347,0.357
3,NCI-H650,0.822
4,CAL-12T,0.707
5,NCI-H1651,0.767
6,EPLC-272H,0.178
7,NCI-H23,0.223
8,NCI-H1792,0.411
9,NCI-H1355,0.797
10,NCI-H322M,0.872
11,NCI-H1437,1.17
12,NCI-H1755,0.475
13,NCI-H2085,0.59
14,HCC-15,0.445
15,NCI-H1793,0.198
16,PC-3 [JPC-3],0.665
17,EKVX,0.94
18,LC-2-ad,1.1
19,NCI-H1944,0.759
20,NCI-H1975,0.294
21,SK-LU-1,0.189
22,NCI-H358,0.488
23,NCI-H661,0.938
24,RERF-LC-KJ,1.24

# Same assay, conditions: first compound 0.253 µM
row,Cell Line,relative viability
1,LXF-289,0.6
2,NCI-H2347,0.399
3,NCI-H650,0.793
4,CAL-12T,0.38
5,NCI-H1651,0.67
6,EPLC-272H,0.293
7,NCI-H23,0.195
8,NCI-H1355,0.694
9,NCI-H322M,0.891
10,NCI-H1437,1.15
11,NCI-H1755,0.58
12,NCI-H2085,0.587
13,HCC-15,0.294
14,NCI-H1793,0.364
15,PC-3 [JPC-3],0.659
16,EKVX,0.871
17,LC-2-ad,0.954
18,NCI-H1944,0.66
19,NCI-H1975,0.23
20,SK-LU-1,0.188
21,NCI-H358,0.295
22,NCI-H661,0.94
23,RERF-LC-KJ,1.2

# Same assay, conditions: first compound 0.8 µM
row,Cell Line,relative viability
1,LXF-289,0.637
2,NCI-H2347,0.263
3,NCI-H650,0.947
4,CAL-12T,0.712
5,NCI-H1651,0.918
6,EPLC-272H,1.17
7,NCI-H23,0.171
8,NCI-H1792,0.571
9,NCI-H1355,0.787
10,NCI-H322M,1.03
11,NCI-H1437,1.1
12,NCI-H1755,0.435
13,NCI-H2085,0.459
14,HCC-15,0.57
15,NCI-H1793,0.203
16,PC-3 [JPC-3],0.667
17,EKVX,0.964
18,LC-2-ad,1.03
19,NCI-H1944,0.845
20,NCI-H1975,0.33
21,SK-LU-1,0.217
22,NCI-H358,0.582
23,NCI-H661,0.928
24,RERF-LC-KJ,1.36

# Same assay, conditions: first compound 2.53 µM
row,Cell Line,relative viability
1,LXF-289,0.694
2,NCI-H2347,0.673
3,NCI-H650,0.792
4,CAL-12T,0.454
5,NCI-H1651,0.874
6,EPLC-272H,0.154
7,NCI-H23,0.212
8,NCI-H1792,0.236
9,NCI-H1355,0.818
10,NCI-H322M,1.06
11,NCI-H1437,1.05
12,NCI-H1755,0.292
13,NCI-H2085,0.448
14,HCC-15,0.62
15,NCI-H1793,0.165
16,PC-3 [JPC-3],0.734
17,EKVX,0.892
18,LC-2-ad,1.06
19,NCI-H1944,0.779
20,NCI-H1975,0.177
21,SK-LU-1,0.188
22,NCI-H358,0.32
23,NCI-H661,0.954
24,RERF-LC-KJ,1.2
